Data as given in US20190264193A1, “PROTEIN ENGINEERING METHODS” (Caribou Biosciences, Inc., priority 2016, published 2019).

What was measured:
DNA-PK [1] = target: T1, DNA-PK (Homo sapiens, UniProt P78527); assay: NU7441 five point dose response on DNA repair patterns after sgRNP nucleofection; type: cell-based; settings: HEK293 T cells
Protocol: In order to assess whether compounds can alter the DNA repair pathways, the following experiment was conducted with methods as described in van Overbeek et al., Molecular Cell (2016) http://dx.doi.org/10.1016/j.molcel.2016.06.037. Briefly, to test the hypothesis that suppression of c-NHEJ would alter the DNA repair landscapes, favoring MMEJ repair outcomes, a chemical inhibitor of DNA-PK, NU7441, was added to HEK293 T cells one hour post nucleofection in a five point dose response. Genomic lysate was harvested 48 hours post nucleofection and processed.
As inhibitor concentration increased, the mean frequency of single base insertions and small deletions (<3 base pairs) decreased, whereas the mean frequency of a subset of large deletions (>3 base pairs) present in the DNA repair profiles increased. This experiment evidences that the suppression of c-NHEJ enhances DNA repair by MMEJ pathways after DSB formation by Cas9.

DNA-PK [2] = target: T1, DNA-PK; assay: DNA repair outcomes after Cas9 cleavage by amplicon sequencing, HEK293 plus NU7441; type: cell-based; settings: JAK1 target site; 48 hours after nucleofection of sgRNP in HEK293 plus NU7441 (FIG. 6F)
Protocol: In order to assess DNA repair outcomes in human cells, the following experiment was conducted using methods as described in van Overbeek et al., Molecular Cell (2016) http://dx.doi.org/10.1016/j.molcel.2016.06.037. Briefly, the repair outcomes following Cas9 cleavage of double-stranded DNA, which result in blunt end products, were profiled using computational tools developed to categorize indels from a cell-based assay. To this end, HEK293, K562 and CCRF-CEM cells were transfected with pre-assembled complexes of Cas9 protein and sgRNA (single-guide RNA ribonucleoprotein complexes (sgRNPs). The Cas9/sgRNA complexes used were prepared as described in van Overbeek et al., Molecular Cell (2016) http://dx.doi.org/10.1016/j.molcel.2016.06.037. DNA repair patterns following Cas9 cleavage were analyzed by amplicon sequencing at time points as shown in FIGS. 6A-6F.
Sequencing reads were assigned to a specific indel class based on the indel type (insertion or deletion), start site, and length (or to the wild-type class), and then the frequency of each class was calculated as a fraction of aligned reads or as a fraction of mutant reads. […]

[3] = as inhibitor concentration increased

T1 sequence (P78527 whole entry): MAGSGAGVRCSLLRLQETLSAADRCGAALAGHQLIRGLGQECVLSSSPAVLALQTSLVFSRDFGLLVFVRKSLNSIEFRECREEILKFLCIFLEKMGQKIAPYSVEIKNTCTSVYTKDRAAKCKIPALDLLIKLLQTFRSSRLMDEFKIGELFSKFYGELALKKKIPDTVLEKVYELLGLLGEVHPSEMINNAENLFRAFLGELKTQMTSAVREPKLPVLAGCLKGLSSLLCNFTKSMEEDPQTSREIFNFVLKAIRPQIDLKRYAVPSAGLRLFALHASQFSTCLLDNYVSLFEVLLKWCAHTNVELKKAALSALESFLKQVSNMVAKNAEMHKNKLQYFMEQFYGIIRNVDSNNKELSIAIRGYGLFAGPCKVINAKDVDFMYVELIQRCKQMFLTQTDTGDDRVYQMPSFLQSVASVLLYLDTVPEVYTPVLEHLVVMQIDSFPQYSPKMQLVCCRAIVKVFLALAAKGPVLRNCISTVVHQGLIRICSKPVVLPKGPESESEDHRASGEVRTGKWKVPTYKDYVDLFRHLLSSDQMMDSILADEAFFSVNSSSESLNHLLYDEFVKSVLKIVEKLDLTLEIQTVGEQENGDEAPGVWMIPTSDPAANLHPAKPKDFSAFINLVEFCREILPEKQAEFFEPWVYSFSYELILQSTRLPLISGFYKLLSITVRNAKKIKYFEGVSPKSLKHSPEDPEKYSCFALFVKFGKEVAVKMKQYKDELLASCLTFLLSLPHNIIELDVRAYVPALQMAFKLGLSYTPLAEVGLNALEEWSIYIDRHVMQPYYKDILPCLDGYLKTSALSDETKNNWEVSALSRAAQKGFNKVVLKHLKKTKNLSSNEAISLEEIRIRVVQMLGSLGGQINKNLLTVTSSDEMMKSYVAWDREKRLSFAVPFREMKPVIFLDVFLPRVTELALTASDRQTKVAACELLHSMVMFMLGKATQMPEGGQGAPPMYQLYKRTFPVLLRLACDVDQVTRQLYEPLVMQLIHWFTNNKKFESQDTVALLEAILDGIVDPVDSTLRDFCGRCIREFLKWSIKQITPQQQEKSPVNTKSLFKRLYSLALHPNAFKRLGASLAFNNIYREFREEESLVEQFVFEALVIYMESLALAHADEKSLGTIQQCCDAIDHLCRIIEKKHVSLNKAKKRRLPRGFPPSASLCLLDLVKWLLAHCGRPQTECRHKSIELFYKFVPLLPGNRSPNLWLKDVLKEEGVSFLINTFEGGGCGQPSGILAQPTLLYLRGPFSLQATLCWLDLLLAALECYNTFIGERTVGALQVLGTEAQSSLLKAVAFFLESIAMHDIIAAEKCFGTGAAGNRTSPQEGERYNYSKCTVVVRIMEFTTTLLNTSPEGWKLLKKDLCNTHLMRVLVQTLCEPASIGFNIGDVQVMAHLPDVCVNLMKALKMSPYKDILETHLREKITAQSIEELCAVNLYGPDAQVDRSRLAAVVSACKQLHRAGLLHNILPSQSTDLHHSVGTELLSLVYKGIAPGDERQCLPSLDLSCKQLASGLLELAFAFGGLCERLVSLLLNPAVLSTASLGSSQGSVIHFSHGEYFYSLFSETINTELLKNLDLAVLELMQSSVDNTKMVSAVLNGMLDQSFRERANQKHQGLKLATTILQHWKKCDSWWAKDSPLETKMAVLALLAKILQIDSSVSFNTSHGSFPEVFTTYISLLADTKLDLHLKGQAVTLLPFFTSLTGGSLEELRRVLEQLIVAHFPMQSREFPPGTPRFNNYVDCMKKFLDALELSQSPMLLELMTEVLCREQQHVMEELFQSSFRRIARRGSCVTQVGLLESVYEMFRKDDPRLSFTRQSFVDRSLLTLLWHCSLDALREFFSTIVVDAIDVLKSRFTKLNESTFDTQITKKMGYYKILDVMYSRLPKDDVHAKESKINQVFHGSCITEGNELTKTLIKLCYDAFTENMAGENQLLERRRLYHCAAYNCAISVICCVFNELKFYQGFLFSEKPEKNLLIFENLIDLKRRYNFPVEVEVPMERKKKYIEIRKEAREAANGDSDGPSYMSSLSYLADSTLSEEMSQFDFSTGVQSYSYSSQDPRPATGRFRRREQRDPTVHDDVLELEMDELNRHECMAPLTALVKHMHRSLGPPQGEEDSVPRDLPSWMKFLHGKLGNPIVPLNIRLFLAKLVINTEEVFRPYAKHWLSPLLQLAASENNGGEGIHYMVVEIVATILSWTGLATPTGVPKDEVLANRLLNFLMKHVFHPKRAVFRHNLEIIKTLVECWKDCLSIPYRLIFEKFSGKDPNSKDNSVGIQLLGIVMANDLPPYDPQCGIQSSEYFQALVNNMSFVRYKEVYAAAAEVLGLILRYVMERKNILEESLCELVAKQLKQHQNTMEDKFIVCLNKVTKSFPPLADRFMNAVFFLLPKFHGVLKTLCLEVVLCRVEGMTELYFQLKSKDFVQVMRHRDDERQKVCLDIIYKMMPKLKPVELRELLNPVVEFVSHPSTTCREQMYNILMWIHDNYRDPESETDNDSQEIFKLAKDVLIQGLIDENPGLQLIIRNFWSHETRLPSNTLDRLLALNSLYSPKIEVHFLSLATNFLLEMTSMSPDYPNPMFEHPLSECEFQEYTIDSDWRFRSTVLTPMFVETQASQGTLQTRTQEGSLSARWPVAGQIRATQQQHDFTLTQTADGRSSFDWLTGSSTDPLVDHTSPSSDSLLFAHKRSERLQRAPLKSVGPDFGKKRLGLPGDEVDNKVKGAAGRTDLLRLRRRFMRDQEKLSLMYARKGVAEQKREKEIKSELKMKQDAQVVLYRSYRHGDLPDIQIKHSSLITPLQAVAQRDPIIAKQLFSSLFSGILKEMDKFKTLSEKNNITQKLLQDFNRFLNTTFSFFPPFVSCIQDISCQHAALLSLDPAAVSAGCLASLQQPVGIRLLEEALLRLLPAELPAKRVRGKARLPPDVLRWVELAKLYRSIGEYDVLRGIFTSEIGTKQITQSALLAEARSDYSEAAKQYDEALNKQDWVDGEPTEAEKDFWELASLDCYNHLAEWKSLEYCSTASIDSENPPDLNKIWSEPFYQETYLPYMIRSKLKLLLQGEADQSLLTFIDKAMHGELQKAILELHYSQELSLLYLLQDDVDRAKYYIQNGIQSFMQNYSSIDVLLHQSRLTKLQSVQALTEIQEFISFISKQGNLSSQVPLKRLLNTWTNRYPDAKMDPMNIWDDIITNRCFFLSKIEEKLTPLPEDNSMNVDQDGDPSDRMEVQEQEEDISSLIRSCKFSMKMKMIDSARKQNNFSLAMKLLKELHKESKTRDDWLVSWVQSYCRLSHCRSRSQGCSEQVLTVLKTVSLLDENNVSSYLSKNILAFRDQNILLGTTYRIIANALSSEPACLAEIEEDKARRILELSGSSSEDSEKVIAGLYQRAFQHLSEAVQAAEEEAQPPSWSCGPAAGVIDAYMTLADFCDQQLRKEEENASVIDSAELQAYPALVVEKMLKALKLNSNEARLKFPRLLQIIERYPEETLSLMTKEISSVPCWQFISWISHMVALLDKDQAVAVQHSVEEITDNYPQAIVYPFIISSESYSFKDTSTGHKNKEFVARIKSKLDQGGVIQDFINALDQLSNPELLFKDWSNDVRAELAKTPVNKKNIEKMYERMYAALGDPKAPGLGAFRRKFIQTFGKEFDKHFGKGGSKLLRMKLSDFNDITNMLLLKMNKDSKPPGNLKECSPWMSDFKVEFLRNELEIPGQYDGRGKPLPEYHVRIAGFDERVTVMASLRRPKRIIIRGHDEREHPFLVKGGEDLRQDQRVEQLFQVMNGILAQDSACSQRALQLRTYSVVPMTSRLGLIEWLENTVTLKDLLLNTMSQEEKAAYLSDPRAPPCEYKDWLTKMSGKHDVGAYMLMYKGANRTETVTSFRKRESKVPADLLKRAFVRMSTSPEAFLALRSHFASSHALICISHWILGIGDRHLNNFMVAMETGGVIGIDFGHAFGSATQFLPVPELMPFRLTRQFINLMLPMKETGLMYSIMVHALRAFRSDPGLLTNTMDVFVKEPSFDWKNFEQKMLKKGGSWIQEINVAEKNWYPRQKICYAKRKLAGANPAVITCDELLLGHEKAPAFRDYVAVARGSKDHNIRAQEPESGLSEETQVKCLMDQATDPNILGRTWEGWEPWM

mean frequency of a subset of large deletions (>3 base pairs) (DNA-PK [1]; [3]): increased
mean frequency of single base insertions and small deletions (<3 base pairs) (DNA-PK [1]; [3]): decreased
DNA repair outcomes (classes and frequency) compared with FIG. 6A (HEK293 without inhibitor) (DNA-PK [2]): different DNA repair outcomes
SMILES: O=c1cc(N2CCOCC2)oc2c(-c3cccc4c3sc3ccccc34)cccc12 [NU7441]
change of the DNA repair patterns compared with untreated samples (DNA-PK [1]; lowest concentration of inhibitor 1.56 μM, 12 different target sites, added one hour post nucleofection, harvested 48 hours): a change of the DNA repair patterns at 12 different target sites compared with untreated samples was apparent
